One data set relates to DTH response. The settings on record: mice, 0.781-50 mg/kg (i.p.) or 0.5 mg/kg (per os); cited from earlier work.
The subject of data set [1] is carragheenin-induced swelling. The settings on record: mice; cited from earlier work.
Data set [2] concerns the target T1, human cannabinoid CB1 receptors (Homo sapiens, UniProt P21554).
T1 construct: expressed in transfected cells
The data set is described as follows: In vitro CB1 antagonism, functional studies in CHO cells expressing human CB1 receptor. It is filed as cell-based. Here is the method:
The cannabinoid CB1 antagonistic activity of compounds of the formulas (I), (II), III), (IV) or (V) is also described in the WO 03/026647, WO 03/027076, WO 03/026648 or WO 03/078413, and was determined by functional studies using CHO cells in which human cannabinoid CB1 receptors are stably expressed. Adenylyl cyclase was stimulated using forskolin and measured by quantifying the amount of accumulated cyclic AMP. Concomitant activation of CB1 receptors by CB1 receptor agonists (e.g. CP-55,940 or (R)-WIN-55,212-2) can attenuate the forskolin-induced accumulation of cAMP in a concentration-dependent manner. This CB1 receptor-mediated response can be antagonized by CB1 receptor antagonists such as the compounds used in the present invention.
The cannabinoid CB1 receptor antagonistic, agonistic or partial agonistic activity of compounds e.g. formula (V) of the invention can be also determined by functional studies using the human CB1 receptor cloned in Chinese hamster ovary (CHO) cells according to the following protocol. CHO cells were grown in a DMEM culture medium, supplemented with 10% heat-inactivated fetal calf serum. Medium was aspirated and replaced by DMEM, without fetal calf serum, but containing [^3H]-Arachidonic acid and incubated overnight in a cell culture stove (5% CO2/95% air; 37° C.; water-saturated atmosphere). During this period [^3H]-Arachidonic acid was incorporated in membrane phospholipids. On the test day, medium was aspirated and cells were washed three times using 0.5 ml phosphate-buffered saline, containing 0.2% bovine serum albumin. Stimulation of the CB1 receptor by WIN 55,212-2 led to activation of PLA2 followed by release of [^3H]-Arachidonic acid into the medium. This WIN 55,212-2-induced release was concentration-dependently antagonized by CB1 receptor antagonists.

Data set [3] deals with T2, human cannabis CB1 receptor (Homo sapiens, UniProt P21554).
T2 construct: expressed in transfected cells; host or cells: Chinese hamster ovary (CHO) cells, stably transfected; membrane preparation
T2 sequence (P21554 whole entry): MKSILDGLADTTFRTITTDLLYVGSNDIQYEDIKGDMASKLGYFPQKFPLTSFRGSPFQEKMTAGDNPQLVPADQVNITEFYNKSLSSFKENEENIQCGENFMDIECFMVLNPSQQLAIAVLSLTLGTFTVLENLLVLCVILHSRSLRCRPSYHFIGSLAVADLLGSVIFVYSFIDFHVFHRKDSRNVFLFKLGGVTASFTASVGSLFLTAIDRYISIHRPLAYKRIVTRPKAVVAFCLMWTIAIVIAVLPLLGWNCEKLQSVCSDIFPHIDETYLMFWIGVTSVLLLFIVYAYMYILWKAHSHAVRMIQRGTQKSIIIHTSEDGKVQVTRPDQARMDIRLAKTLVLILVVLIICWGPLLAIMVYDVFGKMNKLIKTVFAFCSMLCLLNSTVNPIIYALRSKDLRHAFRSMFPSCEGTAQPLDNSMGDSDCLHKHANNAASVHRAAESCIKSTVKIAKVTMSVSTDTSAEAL
The data set is described as follows: In vitro affinity for cannabinoid CB1 receptors, [3H]CP-55,940 radioligand, CHO cell membrane preparations. It is filed as binding. Here is the method:
After incubation of a freshly prepared cell membrane preparation with the [3H]-ligand, with or without addition of compounds of the invention, separation of bound and free ligand was performed by filtration over glass fibre filters. Radioactivity on the filter was measured by liquid scintillation counting.

A further data set relates to plasma lipases. The settings on record: cited from earlier work; for IC50: read-out: IC50 for inhibition of plasma lipases.
Data set [4] addresses T3, porcine pancreatic lipase (Sus scrofa, UniProt P00591).
T3 sequence (P00591 1-450): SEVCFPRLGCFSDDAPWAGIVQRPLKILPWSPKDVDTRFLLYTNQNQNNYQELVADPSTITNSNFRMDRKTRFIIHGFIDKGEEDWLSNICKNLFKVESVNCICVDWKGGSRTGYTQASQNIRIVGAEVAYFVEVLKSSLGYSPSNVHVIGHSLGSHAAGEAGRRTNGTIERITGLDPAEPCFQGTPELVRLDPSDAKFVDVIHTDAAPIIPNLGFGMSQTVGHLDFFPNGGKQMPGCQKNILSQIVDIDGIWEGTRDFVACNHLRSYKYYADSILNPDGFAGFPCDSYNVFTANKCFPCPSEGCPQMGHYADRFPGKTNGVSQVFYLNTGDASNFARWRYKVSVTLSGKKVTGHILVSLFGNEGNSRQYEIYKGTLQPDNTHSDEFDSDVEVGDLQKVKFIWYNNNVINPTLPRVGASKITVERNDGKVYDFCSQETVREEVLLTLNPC
The settings on record: cited from earlier work; for IC50: read-out: IC50 for inhibition of hydrolysis of triolein by porcine pancreatic lipase; for inhibitory activity, fold stronger than that of THL: porcine pancreatic lipase, relative to THL.

The test system of data set [5] is bacterial and fungal lipases. The settings on record: cited from earlier work.
For data set [6] the following is noted: patients on atypical antipsychotics; cited from earlier work.
For data set [7] the following is noted: 120 mg tid, 5 days; placebo 1.4 g/day; cited from earlier work.
Setting [8] is: Human cannabinoid-CB1 receptors, read-out: In vitro affinity pK1 value (converted).

Where two headings read alike, the source gives them in different places.

T1 sequence (P21554 whole entry): as the sequence (P21554 whole entry) above

Take `Cl.O=C(NN1CCCCC1)c1nc(-c2ccc(Cl)cc2)n(-c2ccc(Cl)cc2Cl)n1`: the melting point is 238 to 240 °C (dec.).
With `Cl.O=C(NN1CCOCC1)c1nc(-c2ccc(Cl)cc2Cl)n(-c2ccc(Cl)cc2)n1`, the melting point is 224 to 226 °C.
Still for that read-out and setting: the same measure for `CC(C)(C)ONC(=O)c1nc(-c2ccc(Cl)cc2)n(-c2ccc(Cl)cc2Cl)n1`: 150 to 152 °C; for `Cl.O=C(NN1CCCC1)c1nc(-c2ccc(Cl)cc2Cl)n(-c2ccc(Cl)cc2)n1`: 234 to 236 °C (dec.).
Regarding `CC[C@@H](C)[C@@H](O)[C@H](C)C(=O)[C@H](C)/C=C(\C)C[C@H](C)[C@@H]1OC(=O)[C@H]1C` [Ebelactone A], the “development of DTH response” value in the data set on DTH response is listed as “enhances the development of DTH response”.
As to `CC[C@@H](C)[C@@H](O)[C@H](C)C(=O)[C@H](C)/C=C(\C)C[C@H](C)[C@@H]1OC(=O)[C@H]1CC` [Ebelactone B], in the data set on DTH response, the “development of DTH response” value is “enhances the development of DTH response”. For the same molecule, in data set [1], the carragheenin-induced swelling entry is listed as “reduces carragheenin-induced swelling”.
For the molecule `Cl.O=C(NN1CCCC1)c1nc(-c2ccc(Cl)cc2)n(-c2ccc(Cl)cc2Cl)n1` [Example 2, 5-(4-Chlorophenyl)-1-(2,4-dichlorophenyl)-N-(pyrrolidin-1-yl)-1H-1,2,4-triazole-3-carboxamide hydrochloride], the melting point is 248 to 255 °C (dec.). Further, the antagonist dissociation constant (Kb) in [2] was 63.1 nM. In addition, the Ki in [3] (setting [8]) was 251 nM.
`O=C(NC1CCCCC1)c1nc(-c2ccc(Cl)cc2)n(-c2ccc(Cl)cc2Cl)n1` [Example 3, 5-(4-Chlorophenyl)-N-cyclohexyl-1-(2,4-dichlorophenyl)-1H-1,2,4-triazole-3-carboxamide]: the melting point fell in the range of 186 to 188 °C. Besides, in data set [2], the antagonist dissociation constant (Kb) was 2 nM. Besides, the Ki in data set [3] (setting [8]) is 126 nM.
Molecule `CCCCCNC(=O)c1nc(-c2ccc(Cl)cc2)n(-c2ccc(Cl)cc2Cl)n1` [Example 5, 5-(4-Chlorophenyl)-1-(2,4-dichlorophenyl)-N-(n-pentyl)-1H-1,2,4-triazole-3-carboxamide] gave a Ki in data set [3] of 126 nM.
`O=C(NN1CCOCC1)c1nc(-c2ccc(Cl)cc2)n(-c2ccc(Cl)cc2Cl)n1` [Example 6, 5-(4-Chlorophenyl)-1-(2,4-dichlorophenyl)-N-(morpholin-4-yl)-1H-1,2,4-triazole-3-carboxamide] showed a melting point of 184 to 186 °C.
Take `O=C(NC1CCCCC1)c1nc(-c2ccc(Cl)cc2Cl)n(-c2ccc(Cl)cc2)n1` [Example 9, 1-(4-Chlorophenyl)-N-cyclohexyl-5-(2,4-dichlorophenyl)-1H-1,2,4-triazole-3-carboxamide]: the Kb in [2] is 6.31 nM. Besides, the Ki in [3] (setting [8]) was 39.8 nM.
The molecule `CCCCCNC(=O)c1nc(-c2ccc(Cl)cc2Cl)n(-c2ccc(Cl)cc2)n1` [Example 11, 1-(4-Chlorophenyl)-5-(2,4-dichlorophenyl)-N-(n-pentyl)-1H-1,2,4-triazole-3-carboxamide] gave a Ki in data set [3] of 501 nM.
With `O=C(NN1CCCCC1)c1nc(-c2ccccn2)n(-c2ccc(Cl)cc2Cl)n1` [Example 13, 1-(2,4-Dichlorophenyl)-5-(pyridin-2-yl)-N-(piperidin-1-yl)-1H-1,2,4-triazole-3-carboxamide], the melting point lay in the range of 191 to 193 °C.
As for `O=C(NN1CCCCC1)c1nc(-c2ccc(Cl)cc2Cl)n(-c2ccc(C(F)(F)F)cc2)n1` [Example 14, 5-(2,4-Dichlorophenyl)-N-(piperidin-1-yl)-1-(4-(trifluoromethyl)phenyl)-1H-1,2,4-triazole-3-carboxamide], the melting point was 159 to 161 °C.
On to `O=C(NN1CCCCC1)c1nc(-c2cccnc2)n(-c2ccc(Cl)cc2Cl)n1` [Example 16, 1-(2,4-Dichlorophenyl)-N-(piperidin-1-yl)-5-(pyridin-3-yl)-1H-1,2,4-triazole-3-carboxamide], for which the melting point worked out at 219 °C.
As to `CCCCCCC[C@@H](C[C@@H]1OC(=O)[C@H]1CCCCCCCC(C)C)OC(=O)[C@H](C)NC=O` [Panclicin A], the half-maximal inhibitory concentration (IC50) is 1000 nM in the data set on plasma lipases and 2900 nM in data set [4]. The “potency on plasma lipases compared with THL” value in the data set with plasma lipases (relative to THL) is given as “same potency as THL”. Besides, the “irreversibility of pancreatic lipase inhibition” value in [4] is “irreversibly inhibit pancreatic lipase”. In addition, the “inhibition of bacterial and fungal lipases” value in data set [5] is “profiles similar to those for porcine pancreatic lipase”.
As to `CCCCCCC[C@@H](C[C@@H]1OC(=O)[C@H]1CCCCCCCC(C)C)OC(=O)CNC=O` [Panclicin C], the IC50 in the data set with plasma lipases is 290 nM. Moreover, in data set [4], the “irreversibility of pancreatic lipase inhibition” value was “irreversibly inhibit pancreatic lipase”; the “inhibitory activity, fold stronger than that of THL” value is reported as 2 fold; the half-maximal inhibitory concentration (IC50) is 620 nM. In [5], the “inhibition of bacterial and fungal lipases” value is recorded as “profiles similar to those for porcine pancreatic lipase”.
Regarding `CCCCCCCCCC[C@@H]1C(=O)O[C@H]1C[C@H](CCCCCCC)OC(=O)CNC=O` [Panclicin D], the IC50 with plasma lipases is 250 nM. Also, in data set [4], the “irreversibility of pancreatic lipase inhibition” value was “irreversibly inhibit pancreatic lipase”; the “inhibitory activity, fold stronger than that of THL” value was 2 fold; the half-inhibitory concentration (IC50) is 660 nM. Further, the “inhibition of bacterial and fungal lipases” value in [5] is “profiles similar to those for porcine pancreatic lipase”.
In the case of `CCCCCCCCCCCC[C@@H]1C(=O)O[C@H]1C[C@H](CCCCCCC)OC(=O)CNC=O` [Panclicin E], the IC50 in the data set on plasma lipases was 150 nM. Moreover, in [4], the “irreversibility of pancreatic lipase inhibition” value was “irreversibly inhibit pancreatic lipase”; the “inhibitory activity, fold stronger than that of THL” value is 2 fold; the half-maximal inhibitory concentration (IC50) is 890 nM. For the same molecule, the “inhibition of bacterial and fungal lipases” value in data set [5] is “profiles similar to those for porcine pancreatic lipase”.
On to `Cc1nc2n(c(=O)c1CCN1CCC(c3noc4cc(F)ccc34)CC1)CCCC2` [Risperidone], for which the “weight change with long-term treatment” value in [6] is on record as “modest weight changes that are not dose related”.
Consider `Cc1cc2c(s1)Nc1ccccc1N=C2N1CCN(C)CC1` [olanzapine], for which the “weight change with long-term treatment” value in data set [6] is on record as “largest weight gains”.
Regarding `OCCOCCN1CCN(C2=Nc3ccccc3Sc3ccccc32)CC1` [quetiapine], in data set [6], the “weight change with long-term treatment” value is reported as “smallest”.
Consider `CCCCCCCCCCC[C@@H](C[C@@H]1OC(=O)[C@H]1CCCCCC)OC(=O)[C@H](CC(C)C)NC=O` [tetrahydrolipstatin, (2S,3S,5S)-5-((S)-2-4-methylvaleryloxy)-2-heyl-3-hydroxy-hexadecanoic acid lactone], for which the “fat excreted, average” value in [7] is 5.6 (+1-3.8) g/day.
Regarding `O=C1Cc2cc(CCN3CCN(c4nsc5ccccc45)CC3)c(Cl)cc2N1` [ziprasidone], in [6], the “weight change with long-term treatment” value was “smallest”.
